# Square brackets hold non-standard residues; d marks the D form. Peptide text beside a SMILES is read from it.
# Key:
# rats [1] = test: rat-tail flick method, intracerebroventricular injection; format: in vivo; conditions: for Mean % Change ± SEM: change in latency, drug minus baseline; for analgesic effect / pain threshold: injected into the lateral brain ventricle; for analgesic effect / pain threshold / Mean Latency ± SEM, Drug: rat-tail flick; for Mean Latency ± SEM, Drug: after drug
# Protocol: In this test method, which is a standard test for analgesia, a light beam is focused on the tip of the rat's tail, and the pain threshold of the animal is measured by the latency of the rat to remove his tail from the noxious heat source. When tested by the rat-tail flick method by intracerebroventricular injection, according to the procedure of Belluzzi et al., Nature, 260, 625 (1976), the pentapeptide H-Tyr-Gly-Gly-Phe-d-Lys-OH produced the effects set forth in Table I.
# *All drugs were dissolved in […]. of Ringer's solution and injected int
# the lateral ventricle through permanently-indwelling cannulae.
# opiate receptors = test: displacement of 3H-naloxone from binding sites in rat brain homogenates
# rats [2] = conditions: injection in the brain ventricle in rats; cited from earlier work
# opiate receptor = conditions: brain homogenates; cited from earlier work
# guinea pig ileum = conditions: cited from earlier work
# mouse vas deferens = conditions: cited from earlier work
# [3] = dose 100 μg into the lateral ventricle
# [4] = dose 10 μg into the lateral ventricle
molecule,measurement,setting,value
"NCCCC[C@@H](NC(=O)[C@H](Cc1ccccc1)NC(=O)CNC(=O)CNC(=O)[C@@H](N)Cc1ccc(O)cc1)C(=O)O [H-Tyr-Gly-Gly-Phe-D-Lys-OH, L-Tyrosyl-Glycyl-Glycyl-L-Phenylalanyl-D-Lysine] (H-YGGF[dK]-OH)",Mean % Change ± SEM,rats [1]; [3],78.97 ± 7.85%
same,analgesic effect / pain threshold,rats [1],produced an increase in pain threshold
same,analgesic effect / pain threshold,rats [1]; listed as pentapeptide of Formula I,exerts an analgesic effect
same,"Mean Latency ± SEM, Drug",rats [1]; [3],6.16 ± 0.06
same,binding to opiate receptors,opiate receptors; in vitro,weak binding
same,displacement of 3H-naloxone from binding sites,opiate receptors; rat brain homogenates,capable of displacing 3h-naloxone
"CSCC[C@H](NC(=O)[C@H](Cc1ccccc1)NC(=O)CNC(=O)CNC(=O)[C@@H](N)Cc1ccc(O)cc1)C(=O)O [Methionine-Enkephalin, H-Tyr-Gly-Gly-Phe-Met-OH]",analgesia,rats [2],induce a profound analgesia that is fully reversible by naloxone
same,Mean % Change ± SEM,rats [1]; [3],37.2 ± 8.8%
same,"Mean Latency ± SEM, Drug",rats [1]; [3],5.19 ± 0.31
same,inhibition of stereospecific receptor binding of 3H-naloxone,opiate receptor,inhibit the stereospecific receptor binding
same,block of electrically evoked contractions,guinea pig ileum,mimic the ability of morphine to block electrically evoked contractions
same,block of electrically evoked contractions,mouse vas deferens,mimic the ability of morphine to block electrically evoked contractions
CN1CC[C@]23c4c5ccc(O)c4O[C@H]2[C@@H](O)C=C[C@H]3[C@H]1C5.O=S(=O)(O)O [Morphine Sulfate],Mean % Change ± SEM,rats [1]; [4],65.4 ± 9.1%
same,"Mean Latency ± SEM, Drug",rats [1]; [4],6.59 ± 0.73
H-Tyr-Gly-Gly-Phe-Leu-OH [leucine-enkephalin],analgesia,rats [2],induce a profound analgesia that is fully reversible by naloxone
